Experimental data as given in publication PMC3166071, “Ancient Antimicrobial Peptides Kill Antibiotic-Resistant Pathogens: Australian Mammals Provide New Options” (PLoS ONE, 2011).
≈ marks a conversion by molar mass, not a printed value. Like-named read-outs stand apart in the source and are kept apart here. Where no end group is shown, it is not given here.

Assays:
C. albicans (ATCC 753) = type: cell-based, Candida albicans
Method: (§1) Peptides were synthesized and HPLC purified (AusPep Pty Ltd). The two-stage radial diffusion assay used in this study has been described elsewhere. Briefly, ∼4×10^6 of mid-logarithmic-phase organisms were mixed into 10 ml of warm 0.8% agarose containing 0.03% (w/v) Trypticase soy broth (TSB) powder buffered with 10 mM sodium phosphate, pH 7.4. The synthetic peptides were serially diluted in 0.01% acetic acid and 5 µl peptide samples were loaded in 2.5 mm diameter wells. The plates were covered, and incubated at 37°C. After 3 hours, a 10 ml overlay gel composed of 6% TSB, 0.8% agarose in 10 mM sodium phosphate buffer (pH 7.4) was poured onto the plates. The plates were incubated overnight to allow the surviving organisms to form microcolonies. The clear zone was measured using a magnified transilluminator and expressed in units (1 mm = 10 U) after subtracting the well diameter. The MIC is defined by the χ intercept of a regression line through zone diameters obtained from a series of serially diluted peptide samples. For multidrug-resistant bacteria, MICs were measured as described by micro-broth dilution in Mueller-Hinton broth (Oxoid, Hampshire, England) according to according to Clinical and Laboratory Standards Institute (CLSI) standards. The MIC measurements were performed in duplicate and the data incorporated into a final MIC using standard methods. All the bacterial strains were tested on at least two different occasions. Mid-logarithmic phase cultures of P. aeruginosa 19056 muc were diluted in Mueller–Hinton broth to yield approximately 10^6 cfu/ml. Peptides were added at the indicated concentrations and the suspensions were then incubated for different times in a shaking water bath at 35°C. At the end of each incubation time, the samples were serially diluted in buffered saline and plated onto nutrient agar with a spiral plater (Don Whitley Scientific, Australia). Colonies were counted after 17–22 h incubation at 35°C using an automatic colony counter (Don Whitley Scientific, Australia).

Strep. uberis = type: cell-based, Streptococcus uberis
Method: as §1

[1] = tested on: Sal. enterica (ATCC 14028); type: cell-based
Method: as §1

[2] = tested on: Strep. pyogenes (ATCC 19615); type: cell-based
Method: as §1

E. coli DH5α = assay: microbe, parasite or virus in culture; type: cell-based, Escherichia coli; conditions: for Relative potency of WAM1: against E. coli, WAM1 relative to the antibiotic of the line
Method: as §1

B. subtilis = type: cell-based, Bacillus subtilis
Method: as §1

human red blood cells = type: cell-based
Method: Figure 4 Toxicity of WAM1 on human red blood cells. Haemolytic activity was determined by treating human red blood cells with different concentrations of WAM1 and haemoglobin release measured by absorbance at 450 nm. Samples were incubated at 37°C for 1 hour. PBS and 1% Tween-20 were used as negative and positive controls, representing 0% and 100% hemolytic activity respectively.

S. aureus (ATCC 25923) = type: cell-based, Staphylococcus aureus; conditions: ATCC 25923, 3 h, pH 7.4
Method: as §1

K. pneumoniae [3] = type: cell-based, Klebsiella pneumoniae; conditions: 3 h
Method: as §1

A. baumannii = type: cell-based, Acinetobacter baumannii; conditions: 3 h
Method: as §1

K. pneumoniae [4] = type: cell-based, Klebsiella pneumoniae; conditions: 3 h; remark: listed apart in the source
Method: Figure 3 Time course of K. pneumoniae killing by WAM1 in broth. Time marked in minutes. […] Antimicrobial assays were performed as described previously.
Peptides were synthesized and HPLC purified (AusPep Pty Ltd). The two-stage radial diffusion assay used in this study has been described elsewhere. Briefly, ∼4×10^6 of mid-logarithmic-phase organisms were mixed into 10 ml of warm 0.8% agarose containing 0.03% (w/v) Trypticase soy broth (TSB) powder buffered with 10 mM sodium phosphate, pH 7.4. The synthetic peptides were serially diluted in 0.01% acetic acid and 5 µl peptide samples were loaded in 2.5 mm diameter wells. The plates were covered, and incubated at 37°C. After 3 hours, a 10 ml overlay gel composed of 6% TSB, 0.8% agarose in 10 mM sodium phosphate buffer (pH 7.4) was poured onto the plates. The plates were incubated overnight to allow the surviving organisms to form microcolonies. The clear zone was measured using a magnified transilluminator and expressed in units (1 mm = 10 U) after subtracting the well diameter. […] For multidrug-resistant bacteria, MICs were measured as described by micro-broth dilution in Mueller-Hinton broth (Oxoid, Hampshire, England) according to according to Clinical and Laboratory Standards Institute (CLSI) standards. […] Colonies were counted after 17–22 h incubation at 35°C using an automatic colony counter (Don Whitley Scientific, Australia).

[5] = tested on: P. aeruginosa (ATCC 27853); type: cell-based, Pseudomonas aeruginosa; conditions: ATCC 27853, 3 h, pH 7.4
Method: as §1

P. aeruginosa = type: cell-based, Pseudomonas aeruginosa; conditions: 3 h
Method: as §1

[6] = DH5α, 3 h, pH 7.4, read-out: MIC
[7] = Escherichia coli, Table 2, against E. coli, comparison of WAM1 with antibiotics, read-out: MIC

Molecule | MIC (C. albicans (ATCC 753); ATCC 753, 3 h, pH 7.4) [µM] | MIC (S. aureus (ATCC 25923)) [µM] | MIC (Strep. uberis; 3 h, pH 7.4) [µM] | MIC ([1]; ATCC 14028, 3 h, pH 7.4) [µM] | MIC ([2]; ATCC 19615, 3 h, pH 7.4) [µM] | MIC (E. coli DH5α; [6]) [µM] | MIC (B. subtilis; 3 h, pH 7.4) [µM] | MIC [5] [µM] | Relative potency of WAM1 (E. coli DH5α) [x] | other results
CC[C@H](C)[C@H](NC(=O)[C@H](CCCCN)NC(=O)[C@H](CCC(=O)O)NC(=O)[C@H](CCCCN)NC(=O)[C@H](CO)NC(=O)[C@H](CCCCN)NC(=O)[C@H](CCCNC(=N)N)NC(=O)[C@H](Cc1ccccc1)NC(=O)[C@H](Cc1ccccc1)NC(=O)[C@H](CC(=O)O)NC(=O)CNC(=O)[C@H](CC(C)C)NC(=O)[C@@H](N)CC(C)C)C(=O)NCC(=O)N[C@@H](CCCCN)C(=O)N[C@@H](CCC(=O)O)C(=O)N[C@@H](Cc1ccccc1)C(=O)N[C@@H](CCCCN)C(=O)N[C@@H](CCCNC(=N)N)C(=O)N[C@H](C(=O)N[C@H](C(=O)N[C@@H](CCC(N)=O)C(=O)N[C@@H](CCCNC(=N)N)C(=O)N[C@H](C(=O)N[C@@H](CCCCN)C(=O)N[C@@H](CC(=O)O)C(=O)N[C@@H](Cc1ccccc1)C(=O)N[C@@H](CC(C)C)C(=O)N[C@@H](CCCNC(=N)N)C(=O)N[C@@H](CC(N)=O)C(=O)N[C@@H](CC(C)C)C(=O)N[C@H](C(=O)N1CCC[C@H]1C(=O)N[C@@H](CCCNC(=N)N)C(=O)N[C@H](C(=O)N[C@@H](CCC(=O)O)C(=O)N[C@@H](CO)C(=O)O)[C@@H](C)O)C(C)C)[C@@H](C)CC)C(C)C)[C@@H](C)CC [LL37, reference compound] | – | – | – | – | – | – | – | – | – | MIC (C. albicans (ATCC 753); C. albicans (ATCC 753), two-stage radial diffusion, 10 mM sodium phosphate pH 7.4, 37°C): >56 µM; MIC (Strep. uberis; Strep. uberis, two-stage radial diffusion, 10 mM sodium phosphate pH 7.4, 37°C): 2.24 µM (≈ 10.1 µg/mL); MIC ([1]; Sal. enterica (ATCC 14028), two-stage radial diffusion, 10 mM sodium phosphate pH 7.4, 37°C): 4.30 µM (≈ 19.3 µg/mL); MIC ([2]; Strep. pyogenes (ATCC 19615), two-stage radial diffusion, 10 mM sodium phosphate pH 7.4, 37°C): >55 µM; MIC (E. coli DH5α; E. coli DH5α, two-stage radial diffusion, 0.8% agarose, 0.03% TSB, 10 mM sodium phosphate pH 7.4, 37°C, MIC = x intercept of regression line of zone diameters, read-out: MIC): 5.57 µM (≈ 25 µg/mL); MIC (B. subtilis; B. subtilis, two-stage radial diffusion, 10 mM sodium phosphate pH 7.4, 37°C): 8.62 µM (≈ 38.7 µg/mL)
KRGFGKKLRKRLKKFRNSIKKRLKNFNVVIPIPLPG [WAM1] | 1.30 | 1.01 | 1.22 | 1.14 | 0.66 | 0.47 | 1.50 | 0.77 | – | Haemolytic activity against human red blood cells (human red blood cells): not hemolytic; MIC 0 mM NaCl (K. pneumoniae [3]): 0.5 µM; MIC 150 mM NaCl (K. pneumoniae [3]): 0.9 µM; MIC 200 mM NaCl (K. pneumoniae [3]): 0.9 µM; MIC 0 mM NaCl (A. baumannii): 1.9 µM; MIC 150 mM NaCl (A. baumannii): 1.9 µM; MIC 200 mM NaCl (A. baumannii): 3.8 µM; MIC (E. coli DH5α; DH5α, 3 h, read-out: MIC): 0.47 µM; K. pneumoniae killed (K. pneumoniae [4]): 99.9%; MIC 0 mM NaCl (P. aeruginosa): 0.9 µM; MIC 150 mM NaCl (P. aeruginosa): 0.9 µM; MIC 200 mM NaCl (P. aeruginosa): 0.9 µM
CN(C)[C@@H]1C(O)=C(C(N)=O)C(=O)[C@@]2(O)C(O)=C3C(=O)c4c(O)cccc4[C@@](C)(O)[C@H]3C[C@@H]12 [Tetracycline] | – | – | – | – | – | – | – | – | 10 | MIC (E. coli DH5α; [7]): 4.5 µM (≈ 2 µg/mL)
RPWAGNGSVHRYTVLSPRLKTQ [PAM2] | 2.50 | 2.42 | 0.51 | 1.11 | 0.83 | 0.87 | 3.37 | 0.73 | – | –
KRGLWESLKRKATKLGDDIRNTLRNFKIKFPVPRQG [WAM2] | 1.47 | 1.39 | 0.63 | 1.58 | 0.39 | 1.46 | 2.14 | 1.29 | – | –
CC1(C)S[C@@H]2[C@H](NC(=O)[C@H](N)c3ccccc3)C(=O)N2[C@H]1C(=O)O [Ampicillin] | – | – | – | – | – | – | – | – | 12 | MIC (E. coli DH5α; [7]): 5.7 µM (≈ 1.99 µg/mL)
RRGFWKRLRRRLRRFGDRIRNRFRNFREKLPDPFPG [Ancestral WAM] | 6.45 | 1.42 | 0.07 | 0.96 | 0.68 | 0.41 | 1.56 | 2.06 | – | –
RTKRRIKLIKNGVKKVKDILKNNNIIILPGSNEK [PAM1] | >20 | 0.56 | 0.25 | 0.47 | 0.73 | 0.75 | 1.96 | 1.89 | – | –
O=C(N[C@H](CO)[C@H](O)c1ccc([N+](=O)[O-])cc1)C(Cl)Cl [Chloramphenicol] | – | – | – | – | – | – | – | – | 26 | MIC (E. coli DH5α; Escherichia coli): 12.4 µM (≈ 4.01 µg/mL)
